Laboratory results: patent US20210107865A1, “ALIPHATIC AMINE AND ITS PREPARATION METHOD AND USE” (COVESTRO D[…], priority 2017, published 2021)

Experiment: Solubility of lysine in amine compounds and solvents
Type: physicochemical
Conditions: at 100° C. under normal pressure

NCCCC[C@H](N)C(=O)O [lysine, L-lysine]
solubility of lysine in 1,5-pentanediamine (in 1,5-pentanediamine): solubility of lysine in 1,5-pentanediamine is 33 g/100 g,
solubility of lysine in 1,6-hexanediamine (in 1,6-hexanediamine): is 4.6 g/100 g, measured at 100 °C under normal pressure.
solubility of lysine in cyclohexanol (in cyclohexanol): Ltd. The solubility of lysine in cyclohexanol is 0.01 g/100 g/100 g
solubility of lysine in ethylene glycol (in ethylene glycol): The solubility of lysine in ethylene glycol is 20 g/100 g,
solubility of lysine in isophoronediamine (in isophoronediamine): is 5.2 g/100 g, measured at 100 °C under normal pressure.
